According to patent publication US20050277600A1, “Compositions and methods of use of dimer digallates” (Mars, Incroporated, priority 2004, published 2005):

Columns and labels:
[1] = tested on: human umbilical vein endothelial cell (HUVEC) NO production; experiment: HUVEC NO production (NOx in cell culture medium, chemiluminescence); type: cell-based; conditions: for HUVEC Cells NOx, 24 hr / HUVEC Cells NOx, 5 d / HUVEC Cells NOx, 2 hr: Table 2 summary
Protocol: Several compounds were investigated for their effect on nitric oxide (NO) production and vasorelaxation using serum-free human umbilical vein endothelial cell (HUVEC) culture system in vitro and rabbit aortic ring model ex vivo, respectively. NO production by endothelial cells and relaxation of pre-constricted aortic rings are two main markers for evaluating vascular effects of test compounds.
HUVECs obtained from a single donor were cultured in serum free, low protein (0.5 g/l), antibiotic-free cell culture medium supplemented with essential growth factors, nutrients and minerals. […] The cell culture medium was substituted with apo-transferrin, superoxide dismutase, and catalase to exclude secondary effects of test compounds involving their auto-oxidation mediated hydrogen peroxide formation.
NO production was evaluated by measuring the total amount of all major nitric oxide end products (NOx, including nitrate, nitrite, nitrosothiols) present in the cell culture medium. […] The amount of NO released from the culture medium was subsequently evaluated by measuring the chemiluminescence emitted during the stoichiometrical reaction between ozone and NO using a NO Analyzer (Sievers Instruments, Inc. Boulder, Colo.).
The data presented herein were obtained from three experiments and were expressed as the concentration of NO present (in μmol/l) (as NOx) in the cell culture medium+/−standard deviation (SD). The data were corrected for the NOx intrinsically present in the fully supplemented cell culture medium and normalized with respect to the volume of media from which the sample was drawn. Data were analyzed using Student's t-test with a 95% level of confidence. P values equal to or less than 0.05 were defined as statistically significant.
For the acute effect test, HUVECs were incubated with the test compounds for 2 hours at concentrations of 100 nM, 1 μM, and 10 μM at 37° C. and 5% CO2. […] (FIG. 1)
For the chronic effect test, HUVECs were incubated with 5 subsequent doses of test compounds, each for 24 hours. After each 24 hour treatment, culture medium was replaced.
For the acute effect test, HUVECs were incubated with a single dose of the test compounds for 24 hours at concentrations of 100 nM, 1 μM, and 10 μM at 37° C. and 5% CO2.

[2] = tested on: rabbit aortic rings; experiment: Relaxation of norepinephrine pre-constricted rabbit aortic rings ex vivo
Protocol: Several compounds were investigated for their effect on nitric oxide (NO) production and vasorelaxation using serum-free human umbilical vein endothelial cell (HUVEC) culture system in vitro and rabbit aortic ring model ex vivo, respectively. NO production by endothelial cells and relaxation of pre-constricted aortic rings are two main markers for evaluating vascular effects of test compounds. Effect of different procyanidins on endothelium-dependent relaxation was tested in an ex vivo experiment performed as previously described by Karim et al., J. Nutrl Suppl., 130 (8S): […]-[…] (2000), the relevant portions of which are hereby incorporated herein by reference. The advantage of using this method is that it assesses functional vascular end points. […] In summary, rabbit aortic rings were obtained from male New Zealand White rabbits. Following isolation, the rings were mounted in oxygenated Kreb's buffer, and pre-constricted with norepinephrine (NE) (10^-6 M). […] A positive control acetylcholine (10^-9 to 10^-4 M) and a negative control L-NAME were included in the experiment. Use of L-NAME, which is a NO synthase (NOS) inhibitor, allows for differentiating between endothelium dependent and endothelium independent relaxation events. […] The relaxation response was measured as a function of the decrease in the tension (g) exerted by the aortic rings over time […]. Data obtained were expressed as a percent relaxation of the norepinephrine (NE) constricted rings. The same statistical approach as described above was used. Dose response curves were obtained by plotting the average percent relaxation (+/-SE) against the concentrations used.

[3] = tested on: HUVEC; experiment: HUVEC-mediated MTT reduction (toxic effects); conditions: for cell-mediated MTT reduction / MTT reduction: Experiment 2, chronic, 5 x 24 hours; for cell-mediated MTT reduction: 10 μM (20 μM for the Epicatechin gallates); for cell-mediated reduction of MTT: 1 μM; for MTT reduction: 1 μM or 2 μM for EGC
Protocol: Cell counts and total protein were used to assess intra-assay variation. Potential toxic effects of tested compounds were also monitored (MTT reduction was measured).

[4] = tested on: human umbilical vein endothelial cell (HUVEC) NO production; experiment: HUVEC NO production (NOx in cell culture medium, chemiluminescence); type: cell-based; conditions: Experiment 1, 24 h after single dose, 1 mM (so in the source)
[5] = Experiment 2, single dose, 24 hours, 1 μM
[6] = Experiment 2, single dose, 24 hours
[7] = Experiment 2, single dose, 24 hours, 10 μM
[8] = Experiment 1, 24 h after single dose, 10 μM
[9] = Experiment 1, acute, 2 hours incubation, 10 μM
[10] = Experiment 1, chronic, 5 subsequent 24 hour doses

| SMILES | NO production [1, 5] | HUVEC Cells NOx, 5 d [1] | relaxation response, percent relaxation of NE constricted rings ([2]; Experiment 2, 10^−4 M) | Max Relaxation ([2]; Experiment 3, 10 μM and 100 μM) | cell-mediated MTT reduction [3] | cell-mediated reduction of MTT [3, 6] | HUVEC Cells NOx, 24 hr [1] | MTT reduction [3] | NO production [1, 8] | modulation of NO production [1, 9] | modulation of NO production [1, 7] | HUVEC Cells NOx, 2 hr [1] | relaxation response, percent relaxation of NE constricted rings ([2]; Experiment 1, 10^−4 M) | relaxation response, percent relaxation of NE constricted rings ([2]; Experiment 1, 10^−5 M) | NO production [4] | other results |
| --- | --- | --- | --- | --- | --- | --- | --- | --- | --- | --- | --- | --- | --- | --- | --- | --- |
| O=C(O[C@H]1[C@@H](c2c(O)cc(O)c3c2O[C@H](c2ccc(O)c(O)c2)[C@H](OC(=O)c2cc(O)c(O)c(O)c2)C3)c2c(O)cc(O)cc2O[C@@H]1c1ccc(O)c(O)c1)c1cc(O)c(O)c(O)c1 [C-(4β→8)-EC digallate, (+)-Catechin-(4β,8)-(−)-Epicatechin Digallate] | statistically significant increases in NO production | No significant NOx increase; | 72.4+/−17.4% | 72% | significant decline of cell-mediated MTT reduction | no effect on cell-mediated reduction of MTT |  |  |  |  |  |  |  |  |  | HUVEC Cells NOx, 24 hr ([1]; 1 µM): 1 uM, sign. Incr. NOx; 10 uM,; HUVEC Cells NOx, 24 hr ([1]; 10 µM): no sign. effect on NOx, Cell; relaxation response ([2]; Experiment 2, 10^−5 M): 33.1%; loss of HUVEC MTT reduction as compared to controls [3, 7]: 47%; HUVEC Cells cell toxicity, 24 hr ([3]; Table 2 summary, 24 hr, 10 uM): toxicity |
| O=C(O[C@H]1[C@H](c2c(O)cc(O)c3c2O[C@H](c2ccc(O)c(O)c2)[C@H](OC(=O)c2cc(O)c(O)c(O)c2)C3)c2c(O)cc(O)cc2O[C@@H]1c1ccc(O)c(O)c1)c1cc(O)c(O)c(O)c1 [C-(4α→8)-EC digallate, (+)-Catechin-(4α,8)-(−)-Epicatechin Digallate] |  | No significant NOx increase; | 40.7+/−9.2% |  | significant decline of cell-mediated MTT reduction |  | no effect | decline in MTT reduction |  |  |  |  |  |  |  | Max Relaxation ([2]; Experiment 3, 100 μM): 41%; Aortic Ring Effective Conc, ([2]; Table 1 summary): 100 µM |
| Oc1cc(O)c2c(c1)O[C@H](c1ccc(O)c(O)c1)[C@H](O)[C@H]2c1c(O)cc(O)c2c1O[C@H](c1ccc(O)c(O)c1)[C@@H](O)C2 [EC-(4β→8)-C, (−)-Epicatechin-(4β,8)-(+)-Catechin] | statistically significant increases in NO production | 10 uM, significant NOx |  |  |  | no effect on cell-mediated reduction of MTT | 1 uM and 10 uM, sign. Incr. in |  | increased NO production | statically significant ability to modulate NO production | statistically significant ability to modulate NO production | 10 uM, sign. NOx | 58.36+/−11.35% | 42.7+/−11.81% | increased NO production | HUVEC NO production ([1]; Experiment 2, chronic, 5 subsequent 24 hour doses): increase in NO production which was significantly lower as compared to single dose treatment; NO modulating effect after re-purification ([1]; re-purified compound (first lot contaminated with A1 dimer)): no longer exhibited the NO modulating effect |
| O=C(O[C@@H]1[C@@H](c2c(O)cc(O)c3c2O[C@H](c2ccc(O)c(O)c2)[C@H](OC(=O)c2cc(O)c(O)c(O)c2)C3)c2c(O)cc(O)cc2O[C@@H]1c1ccc(O)c(O)c1)c1cc(O)c(O)c(O)c1 [EC-(4β→8)-EC digallate, (−)-Epicatechin-(4β,8)-(−)-Epicatechin Digallate] | statistically significant increases in NO production | No significant NOx increase; |  | 74% | significant decline of cell-mediated MTT reduction | no effect on cell-mediated reduction of MTT | 1 and 10 uM, sign. NOx inc. | decline in MTT reduction | increased NO production | statically significant ability to modulate NO production | statistically significant ability to modulate NO production | 10 uM, sign. NOx | 73.55+/−7.08% | 44.6+/−16.6% | increased NO production | NO production [1, 10]: attenuation of NO production; decline in MTT reduction [3, 10]: 55% |
